Type in all cases: cell-based
In experiment [1] the test system is Akkermansia muciniphila EB-AMDK27 strain. The experiment is described as follows: Utilization of carbohydrates, API50CH kit (isolated strain). The protocol:
(§1) In order to examine the utilization of carbohydrates by the isolated Akkermansia muciniphila strain of the present invention, the strain was cultured using an API50CH kit (Biomerieux, France), and then whether the strain would grow using each carbohydrate was compared with the type strain (ATCC BAA-835).

Experiment [2] relates to Akkermansia muciniphila ATCC BAA-835. The experiment is described as follows: Utilization of carbohydrates, API50CH kit (type strain). The method, then: as §1
Experiment [3] relates to Bacteroides thetiotaomicron ATCC 29741. Nature of the experiment: Antimicrobial susceptibility, MIC by broth microdilution (CLSI), QC strain. Also noted: MIC, QC ATCC 29741: unit not given beside the values. The note with it: for MIC: Bacteroides, ATCC29741, read-out: MIC, QC ATCC 29741. Background: In broth dilution the organism is exposed to a series of concentrations in liquid medium.

Experiment [4] deals with Akkermansia muciniphila EB-AMDK27 strain. The experiment is described as follows: Antimicrobial susceptibility, MIC by broth microdilution (CLSI). The conditions noted are these: EBAMDK27STRAIN, read-out: MIC, Test strain EB-AMDK27.

In brackets after ≈: the same amount, converted by molar mass. A value given as a limit tells only on which side of the number the result lay.

On to `OC[C@H]1O[C@H](OC[C@H]2O[C@H](O[C@]3(CO)O[C@H](CO)[C@@H](O)[C@@H]3O)[C@H](O)[C@@H](O)[C@@H]2O)[C@H](O)[C@@H](O)[C@H]1O` [D-Raffinose], for which, in experiment [1], the “growth using each carbohydrate, EB-AMDK27” value (“growth … EB-AMDK27” for short) is given as “−”. Besides, the “growth using each carbohydrate, ATCC BAA-835” value (“growth … ATCC BAA-835” for short) in experiment [2] is on record as “−”.

In the case of `CO[C@H]1O[C@H](CO)[C@@H](O)[C@H](O)[C@@H]1O` [Methyl-α D-mannopyranoside], the “growth … EB-AMDK27” value in experiment [1] is given as “−”. In experiment [2], the “growth … ATCC BAA-835” value is reported as “−”.

As for `COc1c(N2C[C@@H]3CCCN[C@@H]3C2)c(F)cc2c(=O)c(C(=O)O)cn(C3CC3)c12` [MXF, Moxifloxacin], the MIC in experiment [3] was 8 µg/mL (≈ 19.9 µM); in experiment [4], greater than 32 µg/mL.

As for D-Turanose, in experiment [1], the “growth … EB-AMDK27” value is “−”. Further, the “growth … ATCC BAA-835” value in experiment [2] is “−”.

With Piperacillin-Tazobactam [PTZ], the “MIC, QC ATCC 29741” value in experiment [3] (broth microdilution) is 8/4.

`CO[C@H]1O[C@H](CO)[C@@H](O)[C@H](O)[C@H]1O` [Methyl-α D-glucopyranoside]: in experiment [1], the “growth … EB-AMDK27” value was “−”. Further, the “growth … ATCC BAA-835” value in experiment [2] is listed as “−”.

Take `O=C(N[C@H](CO)[C@H](O)c1ccc([N+](=O)[O-])cc1)C(Cl)Cl` [CHL, Chloramphenicol]: the MIC is 8 µg/mL (≈ 24.8 µM) in experiment [3] and 4 µg/mL (≈ 12.4 µM) in experiment [4].

As for `Cc1ncc([N+](=O)[O-])n1CCO` [MTZ, Metronidazole], the MIC worked out at 2 µg/mL (≈ 11.7 µM) in experiment [3] and 0.25 µg/mL (≈ 1.46 µM) in experiment [4].

Turning to `OC[C@@H](O)[C@H](O)[C@H](O)[C@@H](O)CO` [Dulcitol], the “growth … EB-AMDK27” value in experiment [1] is reported as “−”. Further, the “growth … ATCC BAA-835” value in experiment [2] is recorded as “−”.

As to `OC[C@H](O)C(O)[C@@H](O)CO` [L-Arabitol], the “growth … EB-AMDK27” value in experiment [1] was “−”. For the same compound, the “growth … ATCC BAA-835” value in experiment [2] was “−”.

`OCc1ccccc1O[C@@H]1O[C@H](CO)[C@@H](O)[C@H](O)[C@H]1O` [Salicine]: in experiment [1], the “growth … EB-AMDK27” value is reported as “−”. In addition, the “growth … ATCC BAA-835” value in experiment [2] is “−”.

With `OC[C@H]1O[C@@](CO)(O[C@H]2O[C@H](CO)[C@@H](O)[C@H](O)[C@H]2O)[C@@H](O)[C@@H]1O` [D-Saccharose (sucrose), D-Saccharose], the “growth … EB-AMDK27” value in experiment [1] is recorded as “−”. Besides, in experiment [2], the “growth … ATCC BAA-835” value was “−”.

With `OC[C@H]1O[C@H](O[C@H]2O[C@H](CO)[C@@H](O)[C@H](O)[C@H]2O)[C@H](O)[C@@H](O)[C@@H]1O` [D-Trehalose], the “growth … EB-AMDK27” value in experiment [1] was “−”. For the same compound, in experiment [2], the “growth … ATCC BAA-835” value was “−”.

On to `CCN1C[C@]2(COC(=O)c3ccccc3N)CC[C@H](OC)[C@]34C5C[C@@H]6[C@@H](OC)C[C@@](O)(C5[C@H]6OC)[C@@](O)(C13)[C@@H](OC)C24` (some centres unmarked) [Inuline], for which, in experiment [1], the “growth … EB-AMDK27” value is on record as “−”. Further, the “growth … ATCC BAA-835” value in experiment [2] is “−”.

Consider `OC[C@H]1O[C@@H](Oc2ccc(O)cc2)[C@H](O)[C@@H](O)[C@@H]1O` [Arbutine], for which, in experiment [1], the “growth … EB-AMDK27” value was “−”. In addition, in experiment [2], the “growth … ATCC BAA-835” value was “−”.

Regarding `OC[C@H]1O[C@H](O[C@H]2[C@H](O)[C@@H](O)[C@H](O)O[C@@H]2CO)[C@H](O)[C@@H](O)[C@@H]1O` [D-Maltose], the “growth … EB-AMDK27” value in experiment [1] is recorded as “−”. Moreover, the “growth … ATCC BAA-835” value in experiment [2] is “−”.

On to `C[C@@H](O)[C@H]1C(=O)N2C(C(=O)O)=C(S[C@@H]3CN[C@H](C(=O)N(C)C)C3)[C@H](C)[C@H]12` [MEM, Meropenem], for which the MIC in experiment [3] and in experiment [4] was 0.5 µg/mL (≈ 1.3 µM) each time.

Regarding `CO/N=C(\C(=O)N[C@@H]1C(=O)N2C(C(=O)O)=CCS[C@H]12)c1csc(N)n1` [CTZ, Ceftizoxime], the MIC is 16 µg/mL (≈ 41.7 µM) in experiment [3] and 2 µg/mL (≈ 5.22 µM) in experiment [4].

Consider `OC[C@@H](O)C(O)[C@H](O)CO` [D-Arabitol], for which the “growth … EB-AMDK27” value in experiment [1] is listed as “−”. Moreover, the “growth … ATCC BAA-835” value in experiment [2] was “−”.

On to Glycogene, for which the “growth … EB-AMDK27” value in experiment [1] was “−”. Further, the “growth … ATCC BAA-835” value in experiment [2] is “−”.

Take `N#C[C@H](O[C@@H]1O[C@H](CO[C@@H]2O[C@H](CO)[C@@H](O)[C@H](O)[C@H]2O)[C@@H](O)[C@H](O)[C@H]1O)c1ccccc1` [Amygdaline]: the “growth … EB-AMDK27” value in experiment [1] is listed as “−”. Further, in experiment [2], the “growth … ATCC BAA-835” value is reported as “−”.

`CCC[C@@H]1C[C@@H](C(=O)N[C@@H]([C@H]2O[C@H](SC)[C@H](O)[C@@H](O)[C@H]2O)[C@H](C)Cl)N(C)C1` [CLI, Clindamycin]: the MIC in experiment [4] is no more than 0.125 µg/mL.

For `OC[C@H]1O[C@@](CO)(O[C@H]2O[C@H](CO)[C@@H](O)[C@H](O)[C@H]2O)[C@@H](O[C@H]2O[C@H](CO)[C@@H](O)[C@H](O)[C@H]2O)[C@@H]1O` [D-Melezitose], the “growth … EB-AMDK27” value in experiment [1] was “−”. Further, the “growth … ATCC BAA-835” value in experiment [2] is listed as “−”.

Take `CO[C@H]1OC[C@@H](O)[C@H](O)[C@H]1O` [α-Methyl-xyloside]: the “growth … EB-AMDK27” value in experiment [1] is “−”. In addition, the “growth … ATCC BAA-835” value in experiment [2] is listed as “−”.

For `O=C([O-])C(=O)C(O)C(O)C(O)CO.[K+]` (centres unmarked) [Potassium 2-Ketogluconate], in experiment [1], the “growth … EB-AMDK27” value is on record as “−”. Moreover, the “growth … ATCC BAA-835” value in experiment [2] was “−”.

As for Amidon [Amidon (starch)], in experiment [1], the “growth … EB-AMDK27” value is on record as “−”. In experiment [2], the “growth … ATCC BAA-835” value is “−”.

Regarding `OC[C@H]1O[C@@H](O[C@H]2[C@H](O)[C@@H](O)[C@H](O)O[C@@H]2CO)[C@H](O)[C@@H](O)[C@@H]1O` [D-Cellobiose], the “growth … EB-AMDK27” value in experiment [1] is “−”. In experiment [2], the “growth … ATCC BAA-835” value is on record as “−”.

In the case of `O=c1ccc2cc(O[C@@H]3O[C@H](CO)[C@@H](O)[C@H](O)[C@H]3O)c(O)cc2o1` [Esculine], the “growth … EB-AMDK27” value in experiment [1] is recorded as “−”. Further, the “growth … ATCC BAA-835” value in experiment [2] is listed as “−”.

For `OC[C@H]1O[C@H](OCC2O[C@@H](O)[C@H](O)[C@@H](O)[C@@H]2O)[C@H](O)[C@@H](O)[C@H]1O` (stereo partly drawn) [D-Melibiose], in experiment [1], the “growth … EB-AMDK27” value is reported as “−”. Moreover, the “growth … ATCC BAA-835” value in experiment [2] is given as “−”.

What is called MIC is the least concentration at which growth counts as inhibited.
